What was measured:
Assay type in all cases: in vivo
paddy rice (Koshihikari) [1] = assay: Test Example 3: growth-promoting effect in rice hydroponics (regenerated root length, 25 °C); details: 25° C. (Growth Promotion), 6 days, untreated = 100
Protocol: In Example 3, a liquid culture medium prepared by diluting OAT House Fertilizer (registered trademark) Formulation A, manufactured by OAT Agrio Co., Ltd., was placed in an erlenmeyer flask. The capsanthin concentration in the paprika pigment (manufactured by San-Ei Gen F. F. I., Inc.) was measured by high performance liquid chromatography at General Incorporated Association Japan Food Research Laboratories. As a result, about 221 mg of capsanthin was contained in 100 g of the paprika pigment. The measurement conditions were as follows. • Model: LC-20 (manufactured by Shimadzu Corporation) • Detector: UV-VIS absorption spectrometer SPD-20AV (manufactured by Shimadzu Corporation) • Column: Shim-pack CLC-SIL (M) (size: 4.6 mm×150 mm) (manufactured by Shimadzu Corporation) • Column temperature: 30 °C. • Mobile phase: mixture of hexane and acetone (81:19) • Flow rate: 1.1 mL/min • Measurement wavelength: 474 nm • Injection volume: 30 μL
Next, paddy rice (Koshihikari) was grown to seedlings in culture soil, and then the roots of the rice were cut to a predetermined length. Five of the cut seedlings were inserted into each erlenmeyer flask containing the above-described liquid culture medium. Then, after cultivation at 25 °C for 6 days, the length of the roots of the rice was measured, and the length of regenerated roots was calculated.
In Comparative Example 5, the same test as in Example 3 was repeated, except for using the liquid culture medium not containing the capsanthin or paprika pigment.
In Reference Example 3, the same test as in Example 3 was repeated, except for using the liquid culture medium containing a commercially available material for improving high-temperature tolerance (material A) at the dilution factor shown in Table 3.
The dilution factor is shown for Reference Example 3, because the content of the active ingredient in the commercially available product is unknown.
The results of Example 3 and Reference Example 3 are expressed as the ratio (%) with respect to the result of Comparative Example 5 (untreated group) taken as 100.

paddy rice (Koshihikari) [2] = assay: Test Example 4: high-temperature stress tolerance improvement in rice hydroponics (regenerated root length, 35 °C); details: for Ratio to Untreated Group (length of regenerated roots): 35 °C (High-Temperature Stress), 6 days, untreated = 100
Protocol: In Example 4, a liquid culture medium prepared by diluting OAT House Fertilizer (registered trademark) Formulation A, manufactured by OAT Agrio Co., Ltd., was placed in an erlenmeyer flask. Then, the above-described capsanthin or paprika pigment was added to the liquid culture medium to give the concentrations shown in Table 4. Next, paddy rice (Koshihikari) was grown to seedlings in culture soil, and then the roots were cut to a predetermined length. Five of the seedlings were inserted into each erlenmeyer flask. Then, after cultivation at 35 °C for 6 days, the length of the roots of the rice was measured, and the length of regenerated roots was calculated.
In Comparative Example 6, the same test as in Example 4 was repeated, except for using the liquid culture medium not containing the capsanthin or paprika pigment.
The results of Example 4 are expressed as the ratio (%) with respect to the result of Comparative Example 6 (untreated group) taken as 100.

paddy rice (Koshihikari) [3] = assay: Test Example 5: salt stress tolerance improvement in rice hydroponics (regenerated root length, sodium chloride); details: sodium chloride 120 mM, 6 days, untreated = 100
Protocol: In Example 5, a liquid culture medium prepared by diluting OAT House Fertilizer (registered trademark) Formulation A, manufactured by OAT Agrio Co., Ltd., was placed in an erlenmeyer flask. Then, sodium chloride was added to the liquid culture medium to give a final concentration of 120 mM, and the capsanthin or paprika pigment was added to the liquid culture medium to give the concentrations shown in […]. Next, paddy rice (Koshihikari) was grown to seedlings in culture soil, and then the roots were cut to a predetermined length. Five of the seedlings were inserted into each erlenmeyer flask. Then, after cultivation for 6 days, the length of the roots of the rice was measured, and the length of regenerated roots was calculated.
In Comparative Example 7, the same test as in Example 5 was repeated, except for using the liquid culture medium not containing the capsanthin or paprika pigment.
In Reference Example 4, the same test as in Example 5 was repeated, except for using the liquid culture medium containing a commercially available material for improving salt tolerance (material B) at the dilution factor shown in Table 5, instead of the capsanthin and paprika pigment.
The results of Example 5 and Reference Example 4 are expressed as the ratio (%) with respect to the result of Comparative Example 7 (untreated group) taken as 100.

[4] = system: wheat (variety: Chikugoizumi); assay: Test Example 11: dryness stress tolerance improvement on wheat (weight of grains per plant); details: dryness stress (irrigation about half), 0.1%
Excerpt: In Example 11, wheat (variety: Chikugoizumi) was sown in 1/5000a Wagner pots and cultivated at a density of 2 plants/pot. Next, all pots were irrigated with the same amount of tap water until the ear-emergence stage of wheat, and irrigation with a chemical solution was started after the ear emergence. In this test, dryness stress was induced by reducing the amount of irrigation to about half of the normal amount. After yellow ripening of the wheat was confirmed, the aboveground portions of the wheat were harvested, and the weight of grains per plant was investigated. A 30 ppm aqueous solution of the paprika pigment was used as the chemical solution.
In Comparative Example 13, the same test as in the test of Example 11 using the paprika pigment was repeated, except for using water for irrigation after the ear emergence.
In Reference Example 10, the same test as in the test of Example 11 using the paprika pigment was repeated, except for using a commercially available material for improving salt tolerance (material B) at the dilution factor shown in Table 11. […]
The results of Example 11, and Reference Examples 10 and 11 are expressed as the ratio (%) with respect to the result of Comparative Example 13 (untreated group) taken as 100.

Compound | Ratio to Untreated Group (length of regenerated roots) (paddy rice (Koshihikari) [1]; capsanthin 0.00000663 ppm) [%] | Ratio to Untreated Group (length of regenerated roots) (paddy rice (Koshihikari) [1]; capsanthin 0.0000663 ppm) [%] | Ratio to Untreated Group (length of regenerated roots) (paddy rice (Koshihikari) [1]; capsanthin 0.000221 ppm) [%] | Ratio to Untreated Group (length of regenerated roots) (paddy rice (Koshihikari) [1]; capsanthin 0.00221 ppm) [%] | Ratio to Untreated Group (length of regenerated roots) (paddy rice (Koshihikari) [2]; capsanthin 0.00000663 ppm) [%] | Ratio to Untreated Group (length of regenerated roots) (paddy rice (Koshihikari) [2]; capsanthin 0.0000663 ppm) [%] | Ratio to Untreated Group (length of regenerated roots) (paddy rice (Koshihikari) [2]; capsanthin 0.000221 ppm) [%] | Ratio to Untreated Group (length of regenerated roots) (paddy rice (Koshihikari) [2]; capsanthin 0.00221 ppm) [%] | Ratio to Untreated Group (length of regenerated roots) (paddy rice (Koshihikari) [2]; capsanthin 0.00663 ppm) [%] | Ratio to Untreated Group (length of regenerated roots) (paddy rice (Koshihikari) [2]; capsanthin 0.0221 ppm) [%] | Ratio to Untreated Group (length of regenerated roots) (paddy rice (Koshihikari) [2]; capsanthin 0.0663 ppm) [%] | effect compared with paprika pigment (in words) (paddy rice (Koshihikari) [2]; Tables 3 to 5 (25 °C, 35 °C, sodium chloride), same concentrations of capsanthin) | Ratio to Untreated Group (length of regenerated roots) (paddy rice (Koshihikari) [3]; capsanthin 0.0000663 ppm) [%] | Ratio to Untreated Group (length of regenerated roots) (paddy rice (Koshihikari) [3]; capsanthin 0.000221 ppm) [%] | Ratio to Untreated Group (length of regenerated roots) (paddy rice (Koshihikari) [3]; capsanthin 0.00221 ppm) [%] | Ratio to Untreated Group (length of regenerated roots) (paddy rice (Koshihikari) [3]; capsanthin 0.00663 ppm) [%] | Ratio to Untreated Group (length of regenerated roots) (paddy rice (Koshihikari) [3]; capsanthin 0.0221 ppm) [%] | Ratio to Untreated Group (length of regenerated roots) (paddy rice (Koshihikari) [3]; capsanthin 0.0663 ppm) [%] | Weight of Grains, Average ([4]; untreated 7.3) [g DW/Plant] | Weight of Grains, Ratio to Untreated Group ([4]; untreated = 100) [%]
CC1=C(/C=C/C(C)=C/C=C/C(C)=C/C=C/C=C(C)/C=C/C=C(C)/C=C/C(=O)[C@]2(C)C[C@@H](O)CC2(C)C)C(C)(C)C[C@H](O)C1 [Capsanthin, capsanthin] | 104 | 102 | 102 | 108 | 115 | 132 | 113 | 122 | 114 | 109 | 140 | comparable effect to that of the paprika pigment | 104 | 103 | 107 | 114 | 111 | 126 |  | 
CC(=O)O [Potassium Acetate, potassium acetate] |  |  |  |  |  |  |  |  |  |  |  |  |  |  |  |  |  |  | 9.3 | 126
